Usually pEC50 stands for the EC50 on a negative log10 scale, so that one unit is a factor of ten. The low end stands for a high EC50, the high end for a low EC50.

Each structure is given as a SMILES string. pEC50: −log10 of the molar value.

The test deals with DYRK1A (Homo sapiens (Human), UniProt Q13627). Briefly: DYRK1A activity Tau assay: pSer396 Tau in SH-SY5Y cells by ELISA / western blot. It is filed as cell-based. The settings on record: overnight (16-18 h) exposure.
`CC(C)NC(=O)c1n[nH]c2ccc(-c3cncc(CN4CCCCC4)c3)cc12` [Compound 131, N-Isopropyl-5-(5-(piperidin-1-ylmethyl)pyridin-3-yl)-1H-indazole-3-carboxamide] showed a pEC50 of 8.00.

Compound `CC(C)NC(=O)c1n[nH]c2ccc(-c3cccc(F)c3F)cc12` [Compound 140, 5-(2,3-Difluorophenyl)-N-isopropyl-1H-indazole-3-carboxamide] showed a pEC50 of 6.24.

`O=C(NC1CC1)c1n[nH]c2ccc(-c3cncc(N4CCCC4)c3)cc12` [Compound 143, N-Cyclopropyl-5-(5-(pyrrolidin-1-yl)pyridin-3-yl)-1H-indazole-3-carboxamide] gave a pEC50 of 8.00.

`O=C(NC1CC1)c1n[nH]c2ccc(-c3cncc(CN4CCCC4)c3)cc12` [Compound 148, N-Cyclopropyl-5-(5-(pyrrolidin-1-ylmethyl)pyridin-3-yl)-1H-indazole-3-carboxamide] gave a pEC50 of 7.96.

`O=C(NC1CCCC1)c1n[nH]c2ccc(-c3cccnc3)cc12` [Compound 179, N-Cyclopentyl-5-(pyridin-3-yl)-1H-indazole-3-carboxamide] had a pEC50 of 8.05. This pEC50 and that of the compound before are within 0.2 log units of each other.

Compound `O=C(NC1CCCC1)c1n[nH]c2ccc(-c3cncc(N4CCCC4)c3)cc12` [Compound 181, N-Cyclopentyl-5-(5-(pyrrolidin-1-yl)pyridin-3-yl)-1H-indazole-3-carboxamide] showed a pEC50 of 7.33.

As to `O=C(NC1CCCCC1)c1n[nH]c2ccc(-c3cc(CN4CCCCC4)cc(F)c3F)cc12` [Compound 217, N-Cyclohexyl-5-(2,3-difluoro-5-(piperidin-1-ylmethyl)phenyl)-1H-indazole-3-carboxamide], the pEC50 was 7.44.

Consider `CC(C)(C)N1CCC(NC(=O)c2n[nH]c3ccc(-c4cncc(N5CCCC5)c4)cc23)CC1` [Compound 293, N-(1-(tert-Butyl)piperidin-4-yl)-5-(5-(pyrrolidin-1-yl)pyridin-3-yl)-1H-indazole-3-carboxamide], for which the pEC50 was 7.66.

For `C#CCN1CCC(NC(=O)c2n[nH]c3ccc(-c4cccnc4)cc23)CC1` [Compound 349, N-(1-(Prop-2-yn-1-yl)piperidin-4-yl)-5-(pyridin-3-yl)-1H-indazole-3-carboxamide], the pEC50 is 8.30.

The compound `CC#CCN1CCC(NC(=O)c2n[nH]c3ccc(-c4cccnc4)cc23)CC1` [Compound 369, N-(1-(But-2-yn-1-yl)piperidin-4-yl)-5-(pyridin-3-yl)-1H-indazole-3-carboxamide] showed a pEC50 of 8.15.

Consider `O=C(Nc1ccnc(C(F)(F)F)c1)c1n[nH]c2ccc(-c3cncc(N4CCCC4)c3)cc12` [Compound 820, 5-(5-(Pyrrolidin-1-yl)pyridin-3-yl)-N-(2-(trifluoromethyl)pyridin-4-yl)-1H-indazole-3-carboxamide], for which the pEC50 is 7.09.

For `O=C(Nc1cnc(C(F)(F)F)nc1)c1n[nH]c2ccc(-c3cncc(CN4CCCCC4)c3)cc12` [Compound 1116, 5-(5-(Piperidin-1-ylmethyl)pyridin-3-yl)-N-(2-(trifluoromethyl)pyrimidin-5-yl)-1H-indazole-3-carboxamide], the pEC50 was 9.00.

`O=C(NC1CCN(Cc2ccccc2)CC1)c1n[nH]c2ccc(-c3cccnc3)cc12` [Compound 1152, N-(1-Benzylpiperidin-4-yl)-5-(pyridin-3-yl)-1H-indazole-3-carboxamide] had a pEC50 of 8.52.

`O=C(NC1CCN(CC(F)F)CC1)c1n[nH]c2ccc(-c3cccc(F)c3F)cc12` [Compound 1161, N-(1-(2,2-Difluoroethyl)piperidin-4-yl)-5-(2,3-difluorophenyl)-1H-indazole-3-carboxamide]: the pEC50 was 6.87.

In the case of `CN(C)CCNC(=O)c1n[nH]c2ccc(-c3cccc(F)c3F)cc12` [Compound 1165, 5-(2,3-Difluorophenyl)-N-(2-(dimethylamino)ethyl)-1H-indazole-3-carboxamide], the pEC50 was 7.11.

`O=C(NC1CCN(CCF)CC1)c1n[nH]c2ccc(-c3cccnc3)cc12` [Compound 1180, N-(1-(2-Fluoroethyl)piperidin-4-yl)-5-(pyridin-3-yl)-1H-indazole-3-carboxamide] had a pEC50 of 8.22.

The compound `O=C(NC1CCN(CC(F)F)CC1)c1n[nH]c2ccc(-c3cccnc3)cc12` [Compound 1181, N-(1-(2,2-Difluoroethyl)piperidin-4-yl)-5-(pyridin-3-yl)-1H-indazole-3-carboxamide] showed a pEC50 of 8.22.

In the case of `O=C(NC1CCN(CC(F)(F)F)CC1)c1n[nH]c2ccc(-c3cccnc3)cc12` [Compound 1182, 5-(Pyridin-3-yl)-N-(1-(2,2,2-trifluoroethyl)piperidin-4-yl)-1H-indazole-3-carboxamide], the pEC50 is 8.10. The pEC50 values of the last two compounds are within 0.2 log units of each other.

`O=C(NCCN1CCCC1)c1n[nH]c2ccc(-c3cccnc3)cc12` [Compound 1195, 5-(Pyridin-3-yl)-N-(2-(pyrrolidin-1-yl)ethyl)-1H-indazole-3-carboxamide] gave a pEC50 of 8.40.

With `CN(C)Cc1cncc(-c2ccc3[nH]nc(C(=O)NC(C)(C)C)c3c2)c1` [Compound 1198, N-(tert-Butyl)-5-(5-((dimethylamino)methyl)pyridin-3-yl)-1H-indazole-3-carboxamide], the pEC50 is 6.31.

Regarding `CC(C)(C)NC(=O)c1n[nH]c2ccc(-c3cncc(CN4CCCC4)c3)cc12` [Compound 1200, N-(tert-Butyl)-5-(5-(pyrrolidin-1-ylmethyl)pyridin-3-yl)-1H-indazole-3-carboxamide], the pEC50 was 6.43. The pEC50 values of the last two compounds are within 0.2 log units of each other.

`CC(C)(C)NC(=O)c1n[nH]c2ccc(-c3cncc(CN4CCCCC4)c3)cc12` [Compound 1202, N-(tert-Butyl)-5-(5-(piperidin-1-ylmethyl)pyridin-3-yl)-1H-indazole-3-carboxamide] showed a pEC50 of 6.84.

`CC(C)(C)NC(=O)c1n[nH]c2ccc(-c3cncc(CN4CCC4)c3)cc12` [Compound 1206, 5-(5-(Azetidin-1-ylmethyl)pyridin-3-yl)-N-(tert-butyl)-1H-indazole-3-carboxamide] gave a pEC50 of 6.68.

The compound `CC(C)(C)NC(=O)c1n[nH]c2ccc(-c3cncc(CN4CC(F)(F)C4)c3)cc12` [Compound 1210, N-(tert-Butyl)-5-(5-((3,3-difluoroazetidin-1-yl)methyl)pyridin-3-yl)-1H-indazole-3-carboxamide] gave a pEC50 of 6.89. This pEC50 lies 0.21 log units higher than the previous one.

In turn, `CC(C)(C)NC(=O)c1n[nH]c2ccc(-c3cncc(N4CCCC4)c3)cc12` [Compound 1214, N-(tert-Butyl)-5-(5-(pyrrolidin-1-yl)pyridin-3-yl)-1H-indazole-3-carboxamide] gave a pEC50 of 6.38.

For `CCC(CC)NC(=O)c1n[nH]c2ccc(-c3cncc(N4CCCC4)c3)cc12` [Compound 1215, N-(Pentan-3-yl)-5-(5-(pyrrolidin-1-yl)pyridin-3-yl)-1H-indazole-3-carboxamide], the pEC50 was 6.70.

`CC(C)NC(=O)c1n[nH]c2ccc(-c3cncc(N4CCCC4)c3)cc12` [Compound 1245, N-Isopropyl-5-(5-(pyrrolidin-1-yl)pyridin-3-yl)-1H-indazole-3-carboxamide] had a pEC50 of 7.60. This pEC50 lies 0.90 log units higher than the previous one.

For the compound `CCN(CC)Cc1cncc(-c2ccc3[nH]nc(C(=O)NC(C)C)c3c2)c1` [Compound 1246, 5-(5-((Diethylamino)methyl)pyridin-3-yl)-N-isopropyl-1H-indazole-3-carboxamide], the pEC50 was 7.35.

`CC(C)NC(=O)c1n[nH]c2ccc(-c3cncc(Cl)c3)cc12` [Compound 1247, 5-(5-Chloropyridin-3-yl)-N-isopropyl-1H-indazole-3-carboxamide]: the pEC50 was 7.28. This pEC50 and that of the compound before are within 0.2 log units of each other.

Consider `CC(C)NC(=O)c1n[nH]c2ccc(-c3cncnc3)cc12` [Compound 1248, N-Isopropyl-5-(pyrimidin-5-yl)-1H-indazole-3-carboxamide], for which the negative-log EC50 (pEC50) is 6.76.

As for `CC(C)NC(=O)c1n[nH]c2ccc(-c3cncc4ccccc34)cc12` [Compound 1249, N-Isopropyl-5-(isoquinolin-4-yl)-1H-indazole-3-carboxamide], the pEC50 was 6.83.

In the case of `CC(C)NC(=O)c1n[nH]c2ccc(-c3cncc(F)c3)cc12` [Compound 1250, 5-(5-Fluoropyridin-3-yl)-N-isopropyl-1H-indazole-3-carboxamide], the pEC50 is 7.31.

Regarding `CC(C)NC(=O)c1n[nH]c2cc(F)c(-c3cncc(F)c3)cc12` [Compound 1251, 6-Fluoro-5-(5-fluoropyridin-3-yl)-N-isopropyl-1H-indazole-3-carboxamide], the pEC50 was 7.35. The pEC50 values of the last two compounds are within 0.2 log units of each other.

`CCN(CC)Cc1cncc(-c2ccc3[nH]nc(C(=O)NC(C)(C)C)c3c2)c1` [Compound 1252, N-(tert-Butyl)-5-(5-((diethylamino)methyl)pyridin-3-yl)-1H-indazole-3-carboxamide] showed a pEC50 of 6.38. Compared with the last compound, the pEC50 is 0.97 log units lower.

`CC(C)(C)NC(=O)c1n[nH]c2ccc(-c3cccnc3)cc12` [Compound 1253, N-(tert-Butyl)-5-(pyridin-3-yl)-1H-indazole-3-carboxamide] had a pEC50 of 6.82.

For `CC(C)CNC(=O)c1n[nH]c2ccc(-c3cccnc3)cc12` [Compound 1254, N-Isobutyl-5-(pyridin-3-yl)-1H-indazole-3-carboxamide], the pEC50 was 8.05.

`CC(C)CNC(=O)c1n[nH]c2ccc(-c3cncc(Cl)c3)cc12` [Compound 1255, 5-(5-Chloropyridin-3-yl)-N-isobutyl-1H-indazole-3-carboxamide] gave a pEC50 of 7.46.

In the case of `CC[C@@H](C)NC(=O)c1n[nH]c2ccc(-c3cncc(Cl)c3)cc12` [Compound 1256, (R)—N-(sec-butyl)-5-(5-chloropyridin-3-yl)-1H-indazole-3-carboxamide], the pEC50 is 6.91.

With `CC[C@@H](C)NC(=O)c1n[nH]c2ccc(-c3cccnc3)cc12` [Compound 1257, (R)—N-(sec-butyl)-5-(pyridin-3-yl)-1H-indazole-3-carboxamide], the pEC50 was 7.85. Compared with the last compound, the pEC50 is 0.94 log units higher.

With `CC[C@H](C)NC(=O)c1n[nH]c2ccc(-c3cccnc3)cc12` [Compound 1258, (S)—N-(sec-butyl)-5-(pyridin-3-yl)-1H-indazole-3-carboxamide], the pEC50 is 7.70.

In the case of `CN(C)CCCNC(=O)c1n[nH]c2ccc(-c3cccc(F)c3F)cc12` [Compound 1260, 5-(2,3-Difluorophenyl)-N-(3-(dimethylamino)propyl)-1H-indazole-3-carboxamide], the pEC50 is 6.87.
